Experimental data as given in patent US20240408271A1, “Functionalized Linkers in Responsive Biomaterials” (priority 2021, published 2024).

How the values were obtained:
[1] = system: MC3T3-E1 pre-osteoblast cells
Source text: FIG. 14A is a graph showing in vitro testing with MC3T3-E1 pre-osteoblast cells to establish cytotoxicity of hydrogen peroxide.
FIG. 14B is a graph showing in vitro testing with MC3T3-E1 pre-osteoblast cells to establish cytotoxicity of ethyl pyruvate.
(§1) As shown in FIGS. 14A and 14B, in vitro cytotoxicity profiles were first established for H2O2 and ethyl pyruvate with MC3T3-E1 pre-osteoblast cells.

MC3T3-E1 cells = assay type: cell-based; details: MC3T3-E1, + 1 mM H2O2
Source text: FIG. 14C is a graph showing a cell saving study capability test of released ethyl pyruvate and degraded ethyl pyruvate.
as §1

[2] = cited from earlier work
[3] = EPTK degradation and ethyl pyruvate release in H2O2 (NMR, HPLC); assay type: physicochemical
Source text: FIG. 13B is an NMR spectrum of the thioketal peak after three days of degradation in varying ROS concentrations
A new thioketal linker was synthesized containing the small molecule therapeutic ethyl pyruvate (FIG. 12).

## OO [H2O2, hydrogen peroxide]
[1]; dose of 1 mM, over 24 hrs, MC3T3-E1
  cell death: ~50%

## CCOC(=O)C(C)=O [ethyl pyruvate]
[1]; mouse
  dose at which toxicity is displayed: ≥ 10 mM
MC3T3-E1 cells
  protection of cells from oxidative toxicity: robust protection

## CC(=O)[C@H]1CC[C@H]2[C@@H]3CCC4=CC(=O)CC[C@]4(C)[C@H]3CC[C@]12C [progesterone]
[2]
  Log P: 3.78

## Cc1ccc(C(=O)c2ccc(CC(=O)O)n2C)cc1 [tolmetin]
[2]
  Log P: 2.07

## ethyl pyruvate thioketal [EPTK]
MC3T3-E1 cells
  protection of cells from oxidative toxicity: some inherent antioxidant protection
[3]; 200 mM H2O2 for 48 hrs, HPLC
  release of intact ethyl pyruvate: intact ethyl pyruvate matching the original drug's character was released
[3]; escalating doses of H2O2, NMR, three days
  degradation of thioketal bond: dose-dependent degradation
[3]; increasing doses of ROS
  rate of ethyl pyruvate release: increased the rate of ethyl pyruvate release
